{"source": "patent US20090226367A1", "about": "“COMPOSITIONS COMPRISING AN ANTI-CA125 ANTIBODY AND A CYTOTOXIC COMPOUND AND THEIR USE FOR THE TREATMENT OF CANCER” (priority 2005, published 2009)", "key": {"[1]": {"settings": "nude mice; cited from earlier work"}, "[2]": {"tested_on": "OVCAR-3 subcutaneous tumors", "assay": "subcutaneous OVCAR-3 xenograft model, tumor growth", "format": "in vivo, NCr nu/nu mice", "settings": "for Tumor Regression (number of animals): groups of 8 mice", "description": "Model of Human Cancer: A subcutaneous OVCAR-3 xenograft model was used.\nAnimals: Female NCr nu/nu (“nude”) mice (Taconic Farms, Germantown, N.Y.) 6-7 weeks old were used for all studies. All animals were housed in sterile micro-isolators, and were given autoclaved food and water ad libitum.\nOVCAR-3 cells were serially propagated in vivo 3 times within the peritoneal cavities of NCr nu/nu mice, followed by subcutaneous implantation in the flank of the mice. […] Mice were injected with 0.2 ml volume of the cell suspension for a final dose of 3×10^6 cells. Beginning approximately 10 days post-implantation, palpable tumors were measured with electronic calipers (Fowler Instruments, Newton, Mass.) across two perpendicular dimensions. Mice were randomly sorted into groups of eight based on tumor volume. […] Tumor measurements and observations were recorded twice a week. Tumor volume was calculated using the standard formula (Length×Width^2)×0.5.\nControl groups consisted of mice injected with 0.9% sodium chloride alone. […] Tumors were measured two times per week. Mice were sacrificed when the tumor volume was greater than 10% of their body weight.\nTumor volumes were compared by Mann-Whitney analysis using Prizm software (GraphPad Software, Inc.). Regression was defined as beginning when a tumor reached <50% of its starting volume and ending when the tumor reached >50% of its initial volume. Partial regression (PR) was defined as when a tumor decreased by 50% or more in volume for at least 7 days, and then later regrew. Complete regression (CR) was defined as when a tumor disappeared for at least 7 days."}, "[3]": {"settings": "paclitaxel 10 mg/kg weekly for three weeks (q3d7)"}}}
{"compound": "CC(=O)O[C@H]1C(=O)[C@@]2(C)[C@H]([C@H](OC(=O)c3ccccc3)[C@]3(O)C[C@H](OC(=O)[C@H](O)[C@@H](NC(=O)c4ccccc4)c4ccccc4)C(C)=C1C3(C)C)[C@]1(OC(C)=O)CO[C@@H]1C[C@@H]2O", "note": "[Paclitaxel, paclitaxel]", "values": [{"measurement": "MTD", "setting": "[1]", "result": "> 30", "unit": "mg/kg"}, {"measurement": "% T/C", "setting": "[2]; paclitaxel 10 mg/kg single dose (day 0), day 40, relative to saline control", "result": 58, "unit": "%"}, {"measurement": "Tumor Regression (number of animals)", "setting": "[2]; paclitaxel 10 mg/kg single dose (day 0)", "result": "no animals had observable regression of tumors"}, {"measurement": "Duration (days) of tumor regression", "setting": "[2]; [3]", "result": 14, "unit": "days"}, {"measurement": "PR (partial regression, number of animals)", "setting": "[2]; [3]", "result": 1}, {"measurement": "% T/C", "setting": "[2]; paclitaxel 10 mg/kg weekly for three weeks (q3d7), day 40", "result": 29, "unit": "%"}, {"measurement": "Tumor Regression (number of animals)", "setting": "[2]; [3]", "result": 1}, {"measurement": "animals demonstrating regression of tumors", "setting": "[2]; three weekly treatments with 10 mg/kg paclitaxel", "result": 10, "unit": "%"}]}
